The text below walks through data of PMC3433708, “Structural Basis for Specific Recognition of Substrates by Sapovirus Protease” (Frontiers in Microbiology, 2012).

T1 sequence (Q6XDK8 1056-1201): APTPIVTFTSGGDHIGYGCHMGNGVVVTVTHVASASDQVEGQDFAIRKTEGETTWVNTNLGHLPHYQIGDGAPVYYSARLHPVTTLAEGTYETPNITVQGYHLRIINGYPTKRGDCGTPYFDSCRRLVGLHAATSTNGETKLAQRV

This assay concerns the target T1, SaV protease (3C-like protease domain of NS6-7, Pro^wt) (Sapovirus Mc10, UniProt Q6XDK8).
T1 construct: gene ORF1; partial ORF1 polyprotein NS6-7-VP1 with functional protease, made by coupled in vitro transcription/translation in rabbit reticulocyte lysate, not purified; protease domain 146 residues; from ORF1 polyprotein of 2278 residues
Kind of assay: in vitro trans cleavage assay, […]-labelled ORF1 polyprotein (Pro^mut), SDS-PAGE, NS4-NS5 band. In kind it is biochemical.
What is called IC50 is the point on the concentration scale where inhibition reaches its midpoint. A higher IC50 goes with weaker potency in that assay. In the case of `CN(C)c1ccc(/C=C2\CCCC3C2=NN(C(=O)CCC(=O)O)C3c2ccc(N(C)C)cc2)cc1` (stereo not drawn) [compound 50, Compound No.50], 26.5 µM corresponded to half-maximal inhibition (IC50).

The molecule `Cc1cccc(N2CCN(c3ccc(C(=O)O)cc3NS(=O)(=O)c3cc(C)cc(C)c3)CC2C)c1` (stereo not drawn) [compound 100, Compound No.100] had an IC50 of 18.4 µM.

`Cc1ccc(C)n1C(CC(=O)O)c1ccc(OCc2ccccc2)cc1` (stereo not drawn) [compound 116, Compound No.116] returned an IC50 of 18.4 µM.
